Values after ≈ are worked out from the molar mass of the structure shown.

Series [1] is described as follows: Stability in human liver microsomes assessed as half-life. It is filed as ADME, Microsome.
Series [2] can be described thus: Stability in rat liver microsomes assessed as half-life. It is filed as ADME, Microsome. On the technique in general: Liver microsomes are vesicles of endoplasmic reticulum, rich in cytochrome P450 enzymes.
Series [3] in a line: Oral bioavailability in Sprague-Dawley rat at 10 mg/kg administered as 20% HPbCD formulation. As to conditions: in vivo. It is filed as ADME, organism-based.
A short description of series [4]: Oral Bioavailability in Sprague-Dawley rat at 10 mg/kg. It is filed as ADME, organism-based. As to conditions: in vivo.
The nature of series [5]: Half-life in Sprague-Dawley rat at 10 mg/kg, po and 2 mg/kg, iv. It is filed as ADME, organism-based. As to conditions: in vivo.
Series [6] is described as follows: Hal-life in Beagle dog at 5 mg/kg, po and 1 mg/kg, iv. It is filed as ADME, organism-based, Canis lupus familiaris. As to conditions: in vivo.
Series [7] can be described thus: Half-life in Cynomolgus monkey at 5 mg/kg, po and 1 mg/kg, iv. It is filed as ADME, organism-based, Macaca fascicularis. To be noted: in vivo.
A short description of series [8]: Volume of distribution at steady state in Sprague-Dawley rat at 10 mg/kg, po and 2 mg/kg, iv. As to conditions: in vivo. It is filed as ADME, organism-based.
Series [9] can be described thus: Volume of distribution at steady state in Beagle dog at 5 mg/kg, po and 1 mg/kg, iv. It is filed as ADME, organism-based, Canis lupus familiaris. To be noted: in vivo.
A short description of series [10]: Volume of distribution at steady state in Cynomolgus monkey at 5 mg/kg, po and 1 mg/kg, iv. To be noted: in vivo. It is filed as ADME, organism-based, Macaca fascicularis.
Series [11] can be described thus: Oral bioavailability in Beagle dog at 5 mg/kg. It is filed as ADME, organism-based, Canis lupus familiaris. To be noted: in vivo.
The nature of series [12]: Oral bioavailability in Cynomolgus monkey at 5 mg/kg. It is filed as ADME, organism-based, Macaca fascicularis. As to conditions: in vivo.
Series [13] in a line: AUC in Sprague-Dawley rat at 2 mg/kg, iv. To be noted: in vivo. It is filed as ADME, organism-based. Also noted: dose 2 mg/kg, route iv.
Series [14] in a line: AUC in Beagle dog at 1 mg/kg, iv. It is filed as ADME, organism-based, Canis lupus familiaris. Also noted: dose 1 mg/kg, route iv. To be noted: in vivo.
The nature of series [15]: AUC in Cynomolgus monkey at 1 mg/kg, iv. It is filed as ADME, organism-based, Macaca fascicularis. The arrangement: dose 1 mg/kg, route iv. To be noted: in vivo.
Series [16] in a line: AUC in Sprague-Dawley rat at 10 mg/kg, po. Also noted: dose 10 mg/kg, route po. As to conditions: in vivo. It is filed as ADME, organism-based.
Series [17] is described as follows: AUC in Beagle dog at 5 mg/kg, po. It is filed as ADME, organism-based, Canis lupus familiaris. The arrangement: dose 5 mg/kg, route po. To be noted: in vivo.
Series [18] can be described thus: AUC in Cynomolgus monkey at 5 mg/kg, po. It is filed as ADME, organism-based, Macaca fascicularis. Also noted: dose 5 mg/kg, route po. To be noted: in vivo.
The nature of series [19]: Clearance in Sprague-Dawley rat assessed as liver blood flow at 10 mg/kg, po and 2 mg/kg, iv. It is filed as ADME, organism-based. As to conditions: in vivo.
Series [20] in a line: Clearance in Beagle dog assessed as liver blood flow at 5 mg/kg, po and 1 mg/kg, iv. It is filed as ADME, organism-based, Canis lupus familiaris. To be noted: in vivo.
A short description of series [21]: Clearance in Cynomolgus monkey assessed as liver blood flow at 5 mg/kg, po and 1 mg/kg, iv. It is filed as ADME, organism-based, Macaca fascicularis. To be noted: in vivo.
The nature of series [22]: Equilibrium solubility of compound at pH 1.2 by HPLC analysis. As to conditions: buffer. It is filed as physicochemical.
Series [23] can be described thus: Equilibrium solubility of compound at pH 6.8 by HPLC analysis. As to conditions: buffer. It is filed as physicochemical.
A short description of series [24]: Drug concentration in plasma of anesthetized New Zealand White rabbit model of AV shunt-induced thrombosis at […], administered as iv bolus dose and subsequently followed by 0.8 mg/kg/hr as iv infusion from 20 min prior to 40 min after establishment of AV shunt by LC-MS/MS analysis. It is filed as ADME, organism-based, Oryctolagus cuniculus. To be noted: time 60 min.

Series [25] can be described thus: Drug concentration in plasma of anesthetized New Zealand White rabbit model of AV shunt-induced thrombosis at 8.5 mg/kg, administered as iv bolus dose and subsequently followed by 10 mg/kg/hr as iv infusion from 20 min prior to 40 min after establishment of AV shunt by LC-MS/MS analysis. It is filed as ADME, organism-based, Oryctolagus cuniculus. To be noted: time 60 min.

A short description of series [26]: Oral bioavailability in Sprague-Dawley rat at 10 mg/kg administered as PEG-400/water/EtOH (7:2:1) formulation. It is filed as ADME, organism-based. As to conditions: in vivo.

In the case of `Cc1ncsc1-c1cnn(C(CC2CC2)c2ccc(-c3c(-n4cnnn4)ccc(Cl)c3F)c[n+]2[O-])c1` (racemic), the half-life in series [1] is 0.183 h; in series [2], 0.3 h.
The matching figures for `Cc1nc(N)ccc1-c1cnn(C(CC2CC2)c2ccc(-c3c(-n4cnnn4)ccc(Cl)c3F)c[n+]2[O-])c1` (racemic): 1.67 h and 1.8 h.
The matching figures for `Cn1nncc1-c1cnn([C@H](Cc2ccc(F)cc2)c2ccc(-c3c(-n4cc(Cl)nn4)ccc(Cl)c3F)c[n+]2[O-])c1`: 1.47 h and 1.28 h.
On to `[O-][n+]1cc(-c2c(-n3cnnn3)ccc(Cl)c2F)ccc1C(CC1CC1)n1cc(-c2c(F)cncc2Cl)cn1` (racemic), for which the half-life in [1] and in series [2] was 0.0333 h each time.
Consider `[O-][n+]1cc(-c2c(-n3cnnn3)ccc(Cl)c2F)ccc1C(CC1CC1)n1cc(-c2cncs2)cn1` (racemic), for which the half-life worked out at 0.05 h in series [1] and 0.117 h in [2].
Take `Cn1nncc1-c1cnn([C@H](Cc2ccc(F)cc2)c2ccc(-c3c(-n4cnnn4)ccc(Cl)c3F)c[n+]2[O-])c1`: the half-life in [1] is more than 3.08 h; in series [2] it was 0.8 h.
The corresponding values for `Cn1nncc1-c1cnn([C@H](Cn2cc(F)cn2)c2ccc(-c3c(-n4cc(Cl)nn4)ccc(Cl)c3F)c[n+]2[O-])c1` are more than 3.08 h and 1.47 h.
Consider `Nc1ccc(-c2cnn(C(CC3CC3)c3ccc(-c4c(-n5cnnn5)ccc(Cl)c4F)c[n+]3[O-])c2)c(F)n1` (racemic), for which the half-life in series [1] and in series [2] was more than 3 h each time.
On to `Cn1nncc1-c1cnn([C@H](Cc2ccn(C(F)F)n2)c2ccc(-c3c(-n4cc(C(F)(F)F)nn4)ccc(Cl)c3F)c[n+]2[O-])c1`, for which the half-life is more than 3.08 h in series [1] and 2.33 h in [2].
Regarding `Cn1nncc1-c1cnn([C@H](CC2CC2)c2ccc(-c3c(-n4cnnn4)ccc(Cl)c3F)c[n+]2[O-])c1`, the half-life in series [1] and in [2] was more than 3 h in each case.
Turning to `COCC[C@H](c1ccc(-c2c(-n3cnnn3)ccc(Cl)c2F)c[n+]1[O-])n1cc(-c2cnnn2C)cn1`, the half-life in series [1] was found to be 2.83 h; in series [2], 0.833 h.
The corresponding values for `Cn1nncc1-c1cnn([C@H](CCOC(F)F)c2ccc(-c3c(-n4cnnn4)ccc(Cl)c3F)c[n+]2[O-])c1` are more than 3.08 h and more than 3.08 h.
With `COCC[C@H](c1ccc(-c2c(-n3cc(Cl)nn3)ccc(Cl)c2F)c[n+]1[O-])n1cc(-c2cnnn2C)cn1`, the half-life in series [1] worked out at 0.9 h; in [2] it was 0.783 h.
The corresponding values for `Cn1nccc1-c1cnn(C(CC2CC2)c2ccc(-c3c(-n4cnnn4)ccc(Cl)c3F)c[n+]2[O-])c1` (racemic) are 0.267 h and 0.45 h.
The corresponding values for `Cn1cncc1-c1cnn([C@H](CC2CC2)c2ccc(-c3c(-n4cnnn4)ccc(Cl)c3F)c[n+]2[O-])c1` are 0.6 h and 1.07 h.
The corresponding values for `Cn1nncc1-c1cnn([C@H](CCOC(F)F)c2ccc(-c3c(-n4cc(C(F)(F)F)nn4)ccc(Cl)c3F)c[n+]2[O-])c1` are more than 3.08 h and 2.42 h.
`COC(=O)Nc1ccc(-c2cnn(C(CC3CC3)c3ccc(-c4cc(Cl)ccc4-n4cnnn4)c[n+]3[O-])c2)cc1` (racemic): the bioavailability in [3] turned out to be 37.3%.
With `Cn1nncc1-c1cnn([C@H](CCOC(F)F)c2ccc(-c3c(-n4cc(Cl)nn4)ccc(Cl)c3F)c[n+]2[O-])c1`, the bioavailability in series [4] is 36.4%; in [11] it was 80.5%; in [12], 43%. For the same compound, the half-life was more than 3.08 h in series [1]; more than 3.08 h in series [2]; 1.4 h in [5]; 2 h in series [6]; 1 h in series [7]. Moreover, the results for the Vdss in series [8], in series [9] and in [10] were 0.8 L/kg, 1.5 L/kg and 1.5 L/kg, respectively. Also, the AUC in [13] came to 5.5 µM·h; in [14] it was 3.7 µM·h; in series [15], 1.1 µM·h; in series [16], 10 µM·h; in series [17] it was 14.7 µM·h; in series [18] it was 2.5 µM·h. For the same compound, the LBF in [19] came to 12%; in series [20], 25%; in [21], 58%. Besides, the solubility (thermodynamic) in [22] was found to be 81 µM (≈ 47 µg/mL); in [23] it was 172 µM (≈ 99.6 µg/mL). Also, the concentration at 1 h in [24] was 1.08 µM; in series [25], 7.5 µM.
With `COC(=O)Nc1ccc(-c2cnn([C@H](CC3CC3)c3ccc(-c4c(-n5cnnn5)ccc(Cl)c4F)c[n+]3[O-])c2)cc1`, in series [26], the bioavailability amounted to 59.6%.

As usually defined, the half-life is the time needed for the level to fall by half in the phase considered. By bioavailability is commonly meant dose-corrected exposure relative to a reference, in per cent. A word on the AUC: it is concentration integrated over time. In general, thermodynamic solubility refers to the concentration in solution at equilibrium with solid.
